Measurements published in ChEMBL document CHEMBL1158436, “In vitro inhibition of human erythrocyte glutathione reductase by some new organic nitrates” (Bioorg Med Chem Lett, 2009).

Target: T1, Glutathione reductase, mitochondrial (Homo sapiens, UniProt P00390)
T1 sequence (P00390 whole entry): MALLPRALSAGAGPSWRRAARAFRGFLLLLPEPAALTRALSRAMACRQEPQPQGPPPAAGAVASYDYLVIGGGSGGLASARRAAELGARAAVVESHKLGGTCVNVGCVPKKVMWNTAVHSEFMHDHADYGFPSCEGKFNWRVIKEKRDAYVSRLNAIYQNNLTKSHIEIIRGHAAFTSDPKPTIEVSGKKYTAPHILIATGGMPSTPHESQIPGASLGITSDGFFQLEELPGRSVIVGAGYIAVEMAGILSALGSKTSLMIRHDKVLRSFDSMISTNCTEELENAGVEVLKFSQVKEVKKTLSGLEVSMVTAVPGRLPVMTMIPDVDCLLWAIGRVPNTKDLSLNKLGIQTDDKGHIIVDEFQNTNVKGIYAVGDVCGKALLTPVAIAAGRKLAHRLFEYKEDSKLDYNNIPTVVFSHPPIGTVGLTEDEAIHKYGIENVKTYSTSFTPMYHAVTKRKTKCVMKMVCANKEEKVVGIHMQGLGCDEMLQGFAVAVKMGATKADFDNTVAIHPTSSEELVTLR
Experiment: Inhibition of human erythrocyte glutathione reductase

SMILES | IC50 | Ki
O=[N+]([O-])O[C@H]1CC=CC[C@@H]1O (racemic) | 23 µM | 35.1 µM
O=[N+]([O-])O[C@H]1CCCCCC[C@@H]1O | 14.2 µM | 21.9 µM
O=[N+]([O-])O[C@@H]1CC2CCC1[C@@H]2O (stereo partly drawn) | 6.81 µM | 11.7 µM
O=[N+]([O-])O[C@@H]1CC[C@H](Br)[C@@H]2CC[C@H]1O2 | 11 µM | 21.5 µM
O=[N+]([O-])OC1CC2c3ccccc3C1C2O (stereo not drawn) | 10.3 µM | 18.8 µM
O=[N+]([O-])O[C@H]1CC/C=C\CC[C@@H]1O (racemic) | 29 µM | 44.3 µM
O=[N+]([O-])O[C@@H](CO)c1ccccc1 (single isomer, unassigned) | 16 µM | 25.6 µM
O=[N+]([O-])O[C@H]1CC2CCC1[C@@H]2O (stereo partly drawn) | 7.13 µM | 13.1 µM
O=[N+]([O-])O[C@H]1CCCC[C@@H]1O | 21 µM | 43.7 µM
